In publication PMC7617869, “Molecular glues that inhibit deubiquitylase activity and inflammatory signaling” (Nature Structural & Molecular Biology, 2025):
Values joined by “and” are separate entries in the source; they are usually repeats but may differ in a detail not shown here. Identical values can stand only once.

Key:
BRISC = target: T1, BRISC (Homo sapiens, UniProt P46736+Q15018+Q9NXR7); experiment: BRISC DUB activity assay (IQF K63-linked diubiquitin); format: biochemical; conditions: for Mean: Fig. 1d; for Normalised V0: replicate columns
T1 construct: made in house; host or cells: Spodoptera frugiperda (Sf9) insect cells, MultiBac
Protocol: IQF assays were performed in DUB reaction buffer containing 50 mM HEPES–NaOH pH 7.0, 100 mM NaCl, 0.1 mg ml^−1 BSA, 1 mM DTT and 0.03% v/v Brij-35. […] The final concentration of BRISC WT, all BRISC mutants, HsBRISCΔLoop, MmBRISC and DrBRISCΔNΔC was 1 nM. Other enzymes were tested at the following concentrations: 5 nM ARISC (FL), 10 nM CfBRISCΔNΔC, 250 nM AMSH* (ref. [43]), 500 nM USP2 and 1 μM trypsin (Sigma, 9002-07-7). For Michaelis–Menten experiments, 1 nM BRISC with 0–1 μM IQF K63-linked diubiquitin substrate was used. Michaelis–Menten analyses and Lineweaver–Burk plots were calculated using GraphPad Prism (version 9.0).
To assess enzymatic activity, BRISC complexes were diluted to concentrations between 1 nM and 50 nM. […] Then, 20-μl enzyme reactions were carried out in 384-well black flat-bottom low-flange plates (Corning, 35373). DUB activity was measured using IQF K63-linked diubiquitin (LifeSensors, DU6303) at 50 nM. Cleaved diubiquitin was monitored by measuring fluorescence intensity (excitation, 544 nm; emission, 575 nm; dichroic mirror, 560 nm). Fluorescence intensity was measured every minute for 30 min at 30 °C. Fluorescence intensity units were plotted against time to generate a linear reaction progress curve, where the initial velocity (V0) corresponds to the gradient of the curve (typically achieved within 15 min). IC50 values were calculated using the GraphPad Prism (version 9.0) built-in dose–response equation for inhibitor concentration versus response (variable slope).

BRISC (FL) = target: T2, BRISC (FL) (Homo sapiens, UniProt P46736+Q15018+Q9NXR7); experiment: In-gel deubiquitylation assay, TAMRA-labeled K63-tetraubiquitin, BRISC; format: biochemical; conditions: 10 μM or 100 μM inhibitor
T2 construct: full-length BRISC (FL), ARISC (FL); made in house; host or cells: Spodoptera frugiperda Sf9 insect cells (MultiBac)
Protocol: The inhibitor capzimin (Merck) was diluted in 1 mM DTT and incubated for 30 min at room temperature to reduce disulfide bonds required for inhibitor activity. […] DUBs were incubated with 750 nM TAMRA-labeled K63-tetraubiquitin (LifeSensors, SI6304T) for 10 min at 30 °C. Reactions were quenched by adding 2.5 μl of 4× SDS–PAGE loading dye (240 mM Tris-HCl pH 6.8, 40% v/v glycerol, 8% w/v SDS, 0.04% w/v bromophenol blue and 5% v/v β-mercaptoethanol). The samples were resolved on 4–12% NuPAGE Bis–Tris gels (Thermo Fisher Scientific). Gels were scanned using an iBright FL 1500 (Thermo Fisher Scientific) (excitation, 515–545 nm; emission, 568–617 nm; exposure, 500 ms).

BRISC–SHMT2 interaction = target: T3, BRISC–SHMT2 interaction (Homo sapiens, UniProt P46736+Q15018+Q9NXR7); experiment: Dianthus spectral shift binding assay (BRISC–SHMT2); conditions: labelled BRISC preincubated with 100 μM compound
T3 construct: His (tag of the complex); made in house
Protocol: Site-specific labeling of His-tagged BRISC was performed using a RED-Tris-NTA second-generation labeling kit (NanoTemper Technologies) in buffer containing 25 mM HEPES pH 7.5, 150 mM NaCl, 1 mM DTT and 0.005% Tween-20. First, 100 nM His–BRISC was incubated with 25 nM RED-Tris-NTA dye and prepared according to the Nanotemper protocol. […] The reactions were carried out in 384-well Dianthus microplates (Nanotemper Technologies) with a 20-μl reaction volume. The measurements were performed using autoexcitation on a Dianthus NT.23 instrument at 25 °C using DI.Control software (version 2.1.1; Nanotemper Technologies). Data were analyzed using DI.Screening Analysis software (version 2.1.1; Nanotemper Technologies) and plotted in GraphPad Prism (version 10.1.0). KD values were determined using a GraphPad Prism built-in equation for total binding (one site).

SMILES: O=C(NC1CCN(C(=O)c2c(Cl)cccc2Cl)CC1)c1n[nH]cc1NC(=O)c1c(Cl)cccc1Cl [AP-5-144]
- Mean (BRISC; log[compound (μM)] 0.1931): 1.0068
- Mean (BRISC; log[compound (μM)] 0.4942): 1.0306
- Mean (BRISC; log[compound (μM)] 0.7959): 0.9990
- Mean (BRISC; log[compound (μM)] 1.0969): 1.0116
- Mean (BRISC; log[compound (μM)] 1.3979): 0.9713
- Mean (BRISC; log[compound (μM)] 1.6990): 1.1388
- Mean (BRISC; log[compound (μM)] 2.0000): 1.0728
- Mean (BRISC; log[compound (μM)] 2.3010): 1.1033
- Mean (BRISC; log[compound (μM)] -0.1079): 1.1343
- Mean (BRISC; log[compound (μM)] -0.4089): 1.1217
- Mean (BRISC; log[compound (μM)] -0.7212): 1.1333
- Mean (BRISC; log[compound (μM)] -1.7212): 1.0000
- inhibition of BRISC DUB activity (in words) (BRISC; IQF diubiquitin assay): did not inhibit
- Normalised V0 (BRISC; [Inhibitor] 0.013 μM): 0.9578 and 1.102 and 0.7959 and 1.072
- Normalised V0 (BRISC; [Inhibitor] 0.02 μM): 0.8824 and 1.105
- Normalised V0 (BRISC; [Inhibitor] 0.0399999 μM): 1.048 and 1.358
- Normalised V0 (BRISC; [Inhibitor] 0.0599997 μM): 0.9169 and 1.23
- Normalised V0 (BRISC; [Inhibitor] 0.0799994 μM): 1.0394 and 1.173
- Normalised V0 (BRISC; [Inhibitor] 0.119998 μM): 0.856 and 0.7489
- Normalised V0 (BRISC; [Inhibitor] 0.199996 μM): 0.9661 and 1.115
- Normalised V0 (BRISC; [Inhibitor] 0.499975 μM): 0.9387 and 1.144
- Normalised V0 (BRISC; [Inhibitor] 0.799936 μM): 0.8532 and 1.098
- Normalised V0 (BRISC; [Inhibitor] 1.25984 μM): 0.9637 and 1.032
- Normalised V0 (BRISC; [Inhibitor] 1.9996 μM): 0.7701 and 1.137
- Normalised V0 (BRISC; [Inhibitor] 3.159 μM): 0.887 and 1.055
- Normalised V0 (BRISC; [Inhibitor] 5.19739 μM): 0.7796 and 1.219
- Normalised V0 (BRISC; [Inhibitor] 7.99364 μM): 0.912 and 1.161
- Normalised V0 (BRISC; [Inhibitor] 12.7839 μM): 0.972 and 1.143
- Normalised V0 (BRISC; [Inhibitor] 19.96 μM): 0.9311 and 1.165
- Normalised V0 (BRISC; [Inhibitor] 31.4999 μM): 0.8747 and 1.168
- Normalised V0 (BRISC; [Inhibitor] 50.147 μM): 0.908 and 1.016
- Normalised V0 (BRISC; [Inhibitor] 79.7601 μM): 0.7753 and 1.257
- Normalised V0 (BRISC; [Inhibitor] 125.99 μM): 0.9194 and 0.97
- Normalised V0 (BRISC; [Inhibitor] 199.922 μM): 0.8606 and 0.9293
- inhibition of BRISC cleavage of K63-linked tetraubiquitin (BRISC (FL)): did not inhibit
- Ratio 670 nm/650 nm (BRISC–SHMT2 interaction; SHMT2 0.00140381 μM): 1.077 and 1.081 and 1.064
- Ratio 670 nm/650 nm (BRISC–SHMT2 interaction; SHMT2 0.00280762 μM): 1.075 and 1.068 and 1.082
- Ratio 670 nm/650 nm (BRISC–SHMT2 interaction; SHMT2 0.00561523 μM): 1.073 and 1.081 and 1.075
- Ratio 670 nm/650 nm (BRISC–SHMT2 interaction; SHMT2 0.0112305 μM): 1.064 and 1.071 and 1.065
- Ratio 670 nm/650 nm (BRISC–SHMT2 interaction; SHMT2 0.0224609 μM): 1.049 and 1.052
- Ratio 670 nm/650 nm (BRISC–SHMT2 interaction; SHMT2 0.0449219 μM): 1.026 and 1.035 and 1.037
- Ratio 670 nm/650 nm (BRISC–SHMT2 interaction; SHMT2 0.0898438 μM): 1.012 and 1.013 and 1.006
- Ratio 670 nm/650 nm (BRISC–SHMT2 interaction; SHMT2 0.179688 μM): 0.993 and 0.976 and 0.943
- Ratio 670 nm/650 nm (BRISC–SHMT2 interaction; SHMT2 0.359375 μM): 0.948 and 0.935 and 0.925
- Ratio 670 nm/650 nm (BRISC–SHMT2 interaction; SHMT2 0.71875 μM): 0.903 and 0.887 and 0.836
- Ratio 670 nm/650 nm (BRISC–SHMT2 interaction; SHMT2 1.4375 μM): 0.863 and 0.84 and 0.841
- Ratio 670 nm/650 nm (BRISC–SHMT2 interaction; SHMT2 2.875 μM): 0.823 and 0.805 and 0.806
- Ratio 670 nm/650 nm (BRISC–SHMT2 interaction; SHMT2 5.75 μM): 0.792 and 0.756 and 0.785
- Ratio 670 nm/650 nm (BRISC–SHMT2 interaction; SHMT2 11.5 μM): 0.776 and 0.777 and 0.775
- Ratio 670 nm/650 nm (BRISC–SHMT2 interaction; SHMT2 23 μM): 0.77 and 0.773 and 0.777
- Ratio 670 nm/650 nm (BRISC–SHMT2 interaction; SHMT2 46 μM): 0.768 and 0.78 and 0.777
